Assay results published in US8063059B2, “Use of compositions containing kappa-opioid receptor antagonists for the treatment of dissociative disorders” (Emodys GmbH, priority 2006, dated 2011).

What was measured:
[1] = tested on: patient diagnosed with post traumatic stress disorders; assay: Medical Application Example 1: buprenorphine in a patient with post traumatic stress disorders; assay type: in vivo, human; conditions: one patient
Protocol: Buprenorphine in the form of a tablet with an active ingredient content of 12 mg was administered sublingually to a patient diagnosed with post traumatic stress disorders with the corresponding psychiatric symptoms.

[2] = tested on: patient diagnosed with emotionally unstable personality disorder; assay: Medical Application Example 3: buprenorphine in patients with emotionally unstable personality disorder; assay type: in vivo, human
Protocol: In medical application examples 3 and 4 buprenorphine, alone or in conjunction with a kappa-opioid receptor antagonist, is used for patients diagnosed with emotionally unstable personality disorder as a possibility for treating the personality disorder and reducing the associated social, somatic and psychiatric consequences.
Buprenorphine was administered as a mucoadhesive sachet with an active ingredient content of 12 mg to a patient diagnosed with emotionally unstable personality disorder.

[3] = one year following the start of treatment

Substance: 2-(N-cyclopropylmethyl-4,5alpha-epoxy-3-hydroxy-6-methoxy-6,14-endoethanomorphinan-7alpha-yl)-3,3-dimethyl-2-butanol [Buprenorphine]
- flashback symptoms and daily life intrusions [1, 3]: significant improvement
- lethargy and emotional swings, intrusive dissociation sensations (patient-indicated) [1, 3]: clear subjective improvement
- occurrence of flashback situations ([1]; sublingual tablet, daily dosage increased from 12 mg to 16 mg): decrease significantly
- self-injuries after one year ([2]; one patient, daily ingestion of 12 mg, after one year): complete lack of self-injuries
- self-injuring behaviour ([2]; one patient, mucoadhesive sachet, 12 mg): complete remission
- frequency of self-cutting ([2]; two other patients): significant reduction
